Results reported in US9579335B2, “Treatment of cystic diseases” (Indiana University Research and Technology Corporation, priority 2010, dated 2017).

Tested on: mpkCCDcl4 cells
Experiment: Ussing-chamber short-circuit current (SCC) measurement of net transepithelial ion transport
Type: cell-based, mouse
Settings: for effect of pretreatment on cyst fluid stimulated ion transport (SCC): inhibitor/effector added before 10% cyst fluid on serosal side; for ion transport (SCC) response to addition of the substance itself: added to the bathing media of monolayers, no prior stimulus
Experimental: mpkCCDcl4 cell culture. mpkCCDcl4 cells were developed as a line expressing the characteristics of the principal cell type of the distal nephron and cortical collecting duct. mpkCCDcl4 cells were grown in a humidified chamber at 37° C. and 5% CO2. The cell line was maintained in plastic culture flasks for propagation. For electrophysiological measurements, the cells were seeded onto Transwell filters at ¼ confluent density. The media was replaced thrice weekly and consisted of Dulbecco's modified Eagle's medium (DMEM): Ham's F12 basal media supplemented with 2% fetal bovine serum, 1 mM Glutamax, 25 U/mL penicillin, […] streptomycin, 12 mg/L ciprofloxacin, 5 mg/L transferrin, 20 μg/L sodium selenite, and 10^−7 M triiodothyronine.
Electrophysiology. Ussing-style electrophysiological measurements were used to measure net transepithelial transport as well as to monitor the transepithelial resistance as described previously. Briefly, transwell permeable membranes containing confluent (>10 days post seeding) monolayers of mpkCCDcl4 cells were excised from the plastic supports, mounted in modified Ussing chambers, and connected to a DVC-1000 Voltage/Current Clamp (World Precision Instruments) with voltage and current electrodes on either side of the membrane. The cells were bathed in serum-free medium maintained at 37° C. via water-jacketed buffer chambers on either side of the filter. Medium was circulated and kept at constant pH using a 5% CO2/95% O2 gas lift. The spontaneous transepithelial potential difference was measured and then clamped to zero. The resulting short-circuit current (SCC) is a measure of net transepithelial ion transport. During the entire experiment, non-zero voltage pulses are induced every 200 seconds and the current displacement during the pulse is used to calculate the transepithelial resistance via Ohm's law. Cultures with resistances lower than 1000 Ω·cm^2 measured within the first 10 minutes of placement in the chambers were discarded. The basal level of transport was monitored for 20-40 minutes before the start of an experiment. The time of addition of the stimulatory effector is defined as zero time.
Unless otherwise stated, each experiment was repeated 3-4 times. Because of variability in the magnitude of the stimulatory responses to cyst fluid from various patients, only one representative experiment is depicted.
The functional effects of cyst fluid were measured as changes in net transepithelial ion transport across high resistance epithelia formed by the mpkCCDcl4 cell line. […] For electrophysiological measurements, confluent cell monolayers grown on permeable supports are mounted in Ussing chambers with access to both the basolateral and apical surfaces. The spontaneous transepithelial potential difference is measured and clamped to zero. In high resistance epithelia, the resulting short-circuit current (SCC) is a measure of net transepithelial transport. By convention, a positive change is defined as anion moving in a secretory direction (serosal to luminal bathing media) or a cation moving in an absorptive direction (luminal to serosal bathing media). Likewise, a decrease in SCC can be defined as anions or cations moving in the opposite direction from that described above. The nature and direction of the ion flux is characterized by effectors and inhibitors.

Compound	effect of pretreatment on cyst fluid stimulated ion transport (SCC)	ion transport (SCC) response to addition of the substance itself	other results
[Ba+2] [Ba^2+]			effect on stimulated Cl- secretion (pretreatment on the apical face): without effect; inhibition of stimulated Cl- secretion (pretreatment on the serosal side): about 50%
CCCCCCCCCCCCOP(=O)(O)O [DDP, dodecylphosphate]	no effect		
CCCCCCCC(=O)OC[C@H](COP(=O)(O)OP(=O)(O)O)OC(=O)CCCCCCC [DGPP, diacylglycerol pyrophosphate]	substantially inhibited		concentrations with adverse effect on integrity of the cellular monolayer (decrease in transepithelial resistance): above 20 μM; average inhibition of the Cl- secretory peak stimulated in response to 10% cyst fluid (pretreatment with 20 μM DGPP, five experiments): 72.8+4.49%
O=C(CNc1ccc2ccccc2c1)N/N=C/c1cc(Br)c(O)c(Br)c1O [GlyH-101]	Neither inhibitor alone completely blocked the response	causes a stimulatory response when added	
COc1ccc2c(c1)c(CC(=O)O)c(C)n2C(=O)c1ccc(Cl)cc1 [Indomethacin, indomethacin]	did not alter		
CCCCCCCCCCCCC/C=C/[C@@H](O)[C@@H](N)COP(=O)(O)O [S-1-P, sphingosine-1-phosphate]		consistently minimal compared to those elicited by LPA	
N=C(N)NC(=O)c1nc(Cl)c(N)nc1N [amiloride]		immediate decrease in the basal current	effect of pre-treatment on subsequent response to forskolin (amiloride 10^-5 M apical, 10 minutes before forskolin): completely eliminated a subsequent response to forskolin; effect on forskolin-stimulated ion transport, added after forskolin (amiloride 10^-5 M apical, 30 minutes after forskolin): completed inhibited; effect on ion transport remaining 30 minutes after cyst fluid addition (amiloride added to apical bathing media): decreased the remaining ion transport to zero
O=C(OC[C@H]1O[C@@H](OC(=O)c2cc(O)c(O)c(OC(=O)c3cc(O)c(O)c(O)c3)c2)[C@H](OC(=O)c2cc(O)c(O)c(OC(=O)c3cc(O)c(O)c(O)c3)c2)[C@@H](OC(=O)c2cc(O)c(O)c(OC(=O)c3cc(O)c(O)c(O)c3)c2)[C@@H]1OC(=O)c1cc(O)c(O)c(OC(=O)c2cc(O)c(O)c(O)c2)c1)c1cc(O)c(O)c(OC(=O)c2cc(O)c(O)c(O)c2)c1 [tannic acid]	Neither inhibitor alone completely blocked the response		
N-palmitoyl-L-serine phosphoric acid [L-NASPA]	appears to inhibit a subsequent response to cyst fluid	immediate response that mimics the response to LPA or 10% cyst fluid	
lysophosphatic acid [LPA]		identical to the response to renal cyst fluid	
